Test results published in article PMC4134938 (Clinical cancer research : an official journal of the …, 2009).
Read-outs that look alike come from different tables or passages of the source.

Columns and labels:
[1] = 5-FU plasma pharmacokinetics; format: in vivo, human; settings: for AUC / Cmax / Css: plasma 5-FU, mean ± SD
[2] = Vorinostat serum pharmacokinetics; format: in vivo, human; settings: for AUC / Tmax / half-life / Cmax: human, po
[3] = system: thymidylate synthase (TS); settings: ref [28], [29], cited from earlier work
[4] = system: patients with refractory colorectal cancer; assay: Toxicity assessment per NCI CTC 3.0; format: in vivo, human
[5] = system: metastatic colorectal cancer; assay: Antitumor response by CT; format: in vivo, human; settings: 21 assessable patients, vorinostat + FOLFOX
[6] = system: thymidylate synthase (TS); assay: TS tumor expression by immunohistochemistry in paired liver metastasis biopsies; format: in vivo, human; settings: for Change in TS staining intensity (IHC): day 4 vs pre-treatment
[7] = system: patients with refractory colorectal cancer
[8] = read-out: Cmax of vorinostat; single-agent 900 mg/m^2 i.v. over 2 hours x 3 days every 3 weeks; ref [26]; cited from earlier work
[9] = system: thymidylate synthase (TS); assay: TS tumor gene expression by RT-PCR in paired biopsies; format: in vivo, human
[10] = maintenance dose 2400 mg/m^2, vorinostat 100 mg
[11] = maintenance dose 2400 mg/m^2, vorinostat 200 mg
[12] = maintenance dose 2400 mg/m^2, vorinostat 300 mg
[13] = maintenance dose 2400 mg/m^2, vorinostat 400 mg
[14] = serum, 100 mg, vorinostat 100 mg PO BID, Day 1, serum, mean
[15] = serum, 200 mg, vorinostat 200 mg PO BID, Day 5 (with FOLFOX), serum, mean
[16] = serum, 300 mg, vorinostat 300 mg PO BID, Day 1, serum, mean
[17] = serum, 300 mg, vorinostat 300 mg PO BID, Day 5 (with FOLFOX), serum, mean
[18] = serum, 400 mg, vorinostat 400 mg PO BID, Day 1, serum, mean
[19] = serum, 400 mg, vorinostat 400 mg PO BID, Day 5 (with FOLFOX), serum, mean
[20] = DL4 vorinostat 400 mg BID+FOLFOX, 4 patients, all cycles
[21] = all dose levels, 21 patients, vorinostat + FOLFOX

## O=c1[nH]cc(F)c(=O)[nH]1 [5-FU, 5-Fluorouracil]
[1]; [10]
  AUC: 15.3 ± 5.7 ηg*hr/mL
  Cmax: 5.03 ± 4.39 ηg/mL
  Css: 0.287 ± 0.044 ηg/mL
[1]; [11]
  AUC: 24 ± 9.11 ηg*hr/mL
  Cmax: 13.1 ± 7.96 ηg/mL
  Css: 0.274 ± 0.045 ηg/mL
[1]; [12]
  AUC: 68.7 ± 88.1 ηg*hr/mL
  Cmax: 24.5 ± 14.5 ηg/mL
  Css: 0.396 ± 0.159 ηg/mL
[1]; [13]
  AUC: 46.7 ± 10.6 ηg*hr/mL
  Cmax: 26.8 ± 11.4 ηg/mL
  Css: 0.432 ± 0.077 ηg/mL
[1]; vorinostat 100 mg BID dose group
  median 5-FU Css: 3000 ng/mL
[1]; vorinostat 100 mg dose group
  Median 5-FU AUC: 14000 ng·h/mL
[1]; vorinostat 200 mg BID dose group
  median 5-FU Css: 16000 ng/mL
[1]; vorinostat 200 mg dose group
  Median 5-FU AUC: 26000 ng·h/mL
[1]; vorinostat 300 mg BID dose group
  median 5-FU Css: 20000 ng/mL
[1]; vorinostat 300 mg dose group
  Median 5-FU AUC: 35000 ng·h/mL
[1]; vorinostat 400 mg BID dose group
  median 5-FU Css: 23000 ng/mL
[1]; vorinostat 400 mg dose group
  Median 5-FU AUC: 44000 ng·h/mL

## O=C(CCCCCCC(=O)Nc1ccccc1)NO [vorinostat, Suberoylanilide Hydroxamic Acid]
[2]; [14]
  AUC: 2.5 µM·h
  Tmax: 2.4 h
[2]; serum, 100 mg, t1/2, vorinostat 100 mg PO BID, Day 1, serum, mean
  half-life: 1.5 h
[2]; serum, 200 mg, vorinostat 200 mg PO BID, Day 1, serum, mean
  AUC: 1.9 µM·h
[2]; [15]
  AUC: 3.3 µM·h
  Tmax: 2.7 h
[2]; serum, 200 mg, Cmax, vorinostat 200 mg PO BID, Day 1, serum, mean
  Cmax: 816 nM
[2]; serum, 200 mg, Cmax, vorinostat 200 mg PO BID, Day 5 (with FOLFOX), serum, mean
  Cmax: 894 nM
[2]; serum, 200 mg, t1/2, vorinostat 200 mg PO BID, Day 1, serum, mean
  half-life: 1.2 h
[2]; [16]
  AUC: 4.4 µM·h
  Tmax: 1.6 h
[2]; [17]
  AUC: 6.8 µM·h
  Tmax: 2.4 h
[2]; serum, 300 mg, Cmax, vorinostat 300 mg PO BID, Day 1, serum, mean
  Cmax: 1460 nM
[2]; serum, 300 mg, Cmax, vorinostat 300 mg PO BID, Day 5 (with FOLFOX), serum, mean
  Cmax: 950 nM
[2]; serum, 300 mg, t1/2, vorinostat 300 mg PO BID, Day 1, serum, mean
  half-life: 2.3 h
[2]; serum, 300 mg, t1/2, vorinostat 300 mg PO BID, Day 5 (with FOLFOX), serum, mean
  half-life: 2.3 h
[2]; [18]
  AUC: 4.5 µM·h
  Tmax: 1.9 h
[2]; [19]
  AUC: 7.4 µM·h
  Tmax: 2.8 h
[2]; serum, 400 mg, Cmax, vorinostat 400 mg PO BID, Day 1, serum, mean
  Cmax: 1510 nM
[2]; serum, 400 mg, Cmax, vorinostat 400 mg PO BID, Day 5 (with FOLFOX), serum, mean
  Cmax: 1480 nM
[2]; serum, 400 mg, t1/2, vorinostat 400 mg PO BID, Day 1, serum, mean
  half-life: 3.7 h
[2]; serum, 400 mg, t1/2, vorinostat 400 mg PO BID, Day 5 (with FOLFOX), serum, mean
  half-life: 2.2 h
[2]; serum, Cmax of vorinostat, at all dose levels (100-400 mg PO BID)
  Cmax: < 2000 nM
[2]; vorinostat 100 mg PO BID, Day 1, serum, mean
  CLapp: 189 L/h
[2]; vorinostat 100 mg PO BID, Day 5 (with FOLFOX), serum, mean
  CLapp: 202 L/h
[2]; vorinostat 200 mg PO BID, Day 1, serum, mean
  CLapp: 400 L/h
[2]; vorinostat 200 mg PO BID, Day 5 (with FOLFOX), serum, mean
  CLapp: 231 L/h
[2]; vorinostat 300 mg PO BID, Day 1, serum, mean
  CLapp: 285 L/h
[2]; vorinostat 300 mg PO BID, Day 5 (with FOLFOX), serum, mean
  CLapp: 225 L/h
[2]; vorinostat 400 mg PO BID, Day 1, serum, mean
  CLapp: 345 L/h
[2]; vorinostat 400 mg PO BID, Day 5 (with FOLFOX), serum, mean
  CLapp: 211 L/h
[2]; within patients, 14 patients, p=0.003
  Change in vorinostat Clapp, day 5 compared to day 1: significant decrease
[2]; within patients, 14 patients, p=0.005
  Change in vorinostat AUC, day 5 compared to day 1: significant increase
[2]; within patients, 19 patients, p=0.02
  Change in vorinostat Tmax, day 5 compared to day 1: statistically significant increase
[3]; in vitro and in vivo models, Q-PCR analysis
  Down-regulation of TS expression: ≤ 100 fold
[3]; pre-clinical studies, 24 hours of vorinostat exposure
  Vorinostat concentration required for effective TS down-regulation: ≥ 5 µM
[4]; [20]
  Neutropenia G3 (patients): 2
  Thrombocytopenia G4 (patients): 2
[4]; [21]
  Grade 3-4 thrombocytopenia (patients): 5
  Grade 3-4 thrombocytopenia (share of patients): 24%
[5]
  Objective response: No patient developed an objective response
  Patients with confirmed stable disease: 5
  Patients with stable disease on 2-month staging CT scan: Eleven
[6]; 6 paired samples, pre-treatment vs 4th day of vorinostat, cycle 1
  Patients with no change in TS staining pattern (IHC): 4
[6]; one patient at DL1 (vorinostat 100 mg PO BID)
  Change in TS staining intensity (IHC): decreased intensity from strong to weak
[6]; one patient at DL4 (vorinostat 400 mg PO BID)
  Change in TS staining intensity (IHC): increase in intensity from weak to strong
[7]; DL1 vorinostat 100 mg PO BID + FOLFOX, 3 evaluable patients, cycle 1
  Patients with DLT: None
[7]; DL2 vorinostat 200 mg PO BID + FOLFOX, 3 patients, cycle 1
  Patients with DLT: without any DLT
[7]; DL3 vorinostat 300 mg PO BID + FOLFOX, evaluable patients, cycle 1
  Patients with DLT (fatigue, anorexia, dehydration): One of 10
[7]; DL4 vorinostat 400 mg PO BID + FOLFOX
  Tolerability of dose-level: intolerable
[7]; DL4 vorinostat 400 mg PO BID + FOLFOX, cycle 1
  Patients with DLT (grade 3 fatigue; grade 3 diarrhea in one): 2 of 4
[7]; x 1 week every two weeks, FOLFOX on days 4 and 5
  MTD of vorinostat in combination with FOLFOX: 300 mg PO BID
[8]
  Cmax: > 20000 nM
[9]; 6 patients with paired biopsies
  Patients without any change in TS expression (RT-PCR): four
[9]; paired tumor biopsies, day 4 of vorinostat vs pre-treatment (DL1 and DL4)
  Patients with down-regulation of TS (RT-PCR): 2 of 6
[9]; patient at DL1 (vorinostat 100 mg PO BID)
  Decrease in TS gene expression: ~50%
[9]; patient at DL1, before vorinostat
  TS gene expression relative to β-actin: 0.92
[9]; patient at DL1, following vorinostat treatment
  TS gene expression relative to β-actin: 0.45
[9]; patient at DL4 (vorinostat 400 mg PO BID)
  Decrease in TS gene expression: approximately 33%
[9]; patient at DL4, before vorinostat
  TS gene expression relative to β-actin: 2.27
[9]; patient at DL4, following vorinostat treatment
  TS gene expression relative to β-actin: 1.58
